Laboratory results reported in patent US10308595B2, “Albicidin derivatives, their use and synthesis” (priority 2013, dated 2019).

Experiments:
Assay type in all cases: cell-based
[1] = tested on: Escherichia coli strains expressing albicidin resistance determinants (DH5aAlbr, albD, alb14, alb19, sbmC); assay: Microbiological assay (Zhang et al.) for cross-resistance; settings: synthetic versus natural albicidin, FIG. 11
Excerpt: The microbiological assay described by Zhang et al., (J Appl Microbiol., 1998, 85, 1023-8) was used to study cross-resistance between synthetic albicidin (10) and the natural product albicidin purified from albicidin heterologous host developed by Vivien et al. (Antimicrob Agents Chemother., 2007, 51, 1549-52). Several Escherichia coli strains expressing a wide range of albicidin resistance determinants were used for this microbiological bioassay: strain DH5aAlbr (a spontaneous albicidin-resistant DH5a derivative; Rott et al., (J. Bacteriol., 1996, 178, 4590-4596.) and strains harboring albD (an albicidin-detoxifying gene, Zhang and Birch (Proc. Natl. Acad. Sci. USA, 1997, 94, 9984-9989.), alb14 (an albicidin efflux pump gene conferring albicidin resistance in E. coli, Bostock et al., (J. Appl. Microbiol., 2006, 101, 151-160.), alb19 (a McbG gene conferring albicidin resistance in E. coli, Hashimi et al. (Antimicrob. Agents Chemother., 2007, 51, 181-187.), or sbmC (a microcin B17 resistance gene, Baquero et al. (Mol. Microbiol., 1995, 18, 301-311.).

[2] = tested on: test strains of the agar plate tests; assay: Test agar plates, control substance in the same tests (strains not named individually); settings: active substance 1 mg/ml
Protocol: (§1) The dry compounds were dissolved in DMSO (1 mg/ml) and the so obtained stock solution was diluted with sterilized Millipore water 1:10 and 1:100
(§2) 20 μl of cryo stock of each strain were inoculated to 20 ml of Mueller-Hinton medium and grown overnight at 30° C. or 37° C. on a vertical shaker with 160 rpm. The inoculum for the test was adjusted by the 0.5 McFarland Standard (OD625 from 0.08 to 0.1)
(§3) Every plate is prepared by pouring 10 ml Mueller-Hinton agar into standard petri dishes (diam 94 mm). The so obtained Mueller-Hinton plates are overlayed with 4 ml Mueller-Hinton soft agar containing 100 μl suspension of the test strain.
(§4) After the soft agar turned solid, sterile susceptibility test discs were circular placed on the agar and on every test disc 10 μl compound was added. Each concentration is tested in triplicate. The agar dishes were incubated for 18 hours at a temperature of 30° C. or 37° C. Results are obtained by measuring the diameter of inhibition area around each test disc.
Test Agar Plates (Active Substance 1 mg/ml) Control Substance: […]

[3] = tested on: Bacillus subtilis DSM10; assay: Test agar plates (disc diffusion), diameter of inhibition area; settings: 10 μl per test disc, "—" no activity detected
Protocol: as §1, §2
Bacillus subtilis DSM10 [gram. Pos.] Medium: MHB/30° C.
as §3, §4

[4] = tested on: Mycobacterium phlei DSM750; assay: as above; settings: concentration 1 mg/ml; 10 μl per test disc; "—" no activity detected
Protocol: as §1, §2
Mycobacterium phlei DSM750 [gram. Pos.] Medium: MHB/30° C.
as §3, §4

[5] = tested on: Bacillus megaterium; assay: as above; settings: 10 μl per test disc, "—" no activity detected
Protocol: as §1, §2
Bacillus megaterium [gram. Pos.] Medium: MHB/30° C.
as §3, §4

[6] = tested on: Micrococcus luteus DSM1790; assay: as above; settings: 10 μl per test disc, "—" no activity detected
Protocol: as §1, §2
Micrococcus luteus DSM1790 [gram. Pos.] Medium: MHB/37° C.
as §3, §4

[7] = tested on: Escherichia coli K12 (W1130); assay: as above; settings: 10 μl per test disc, "—" no activity detected
Protocol: as §1, §2
Escherichia coli K12 (W1130) [gram. Neg.] Medium: MHB/37° C.
as §3, §4

SMILES | resistance pattern (cross-resistance) in albicidin-resistant E. coli strains [1] | diameter of inhibition, control substance in the same tests [2] | Antibacterial activity, diameter of inhibition area, Bacillus subtilis DSM 10 ([3]; concentration 1 mg/ml) | Antibacterial activity, diameter of inhibition area, Mycobacterium phlei DSM 750 [4] | Antibacterial activity, diameter of inhibition area, Bacillus megaterium ([5]; concentration 1 mg/ml) | Antibacterial activity, diameter of inhibition area, Micrococcus luteus ([6]; concentration 1 mg/ml) | Antibacterial activity, diameter of inhibition area, Escherichia coli K12 (W1130) ([7]; concentration 1 mg/ml) | Antibacterial activity, diameter of inhibition area, Bacillus subtilis DSM 10 ([3]; concentration 0.1 mg/ml) | Antibacterial activity, diameter of inhibition area, Bacillus megaterium ([5]; concentration 0.1 mg/ml) | Antibacterial activity, diameter of inhibition area, Micrococcus luteus ([6]; concentration 0.1 mg/ml) | Antibacterial activity, diameter of inhibition area, Escherichia coli K12 (W1130) ([7]; concentration 0.1 mg/ml)
COc1c(NC(=O)c2ccc(NC(=O)c3ccc(NC(=O)[C@H](CC#N)NC(=O)c4ccc(NC(=O)/C(C)=C/c5ccc(O)cc5)cc4)cc3)c(OC)c2O)ccc(C(=O)O)c1O [synthetic albicidin (10), (S,E)-4-(4-(4-(3-cyano-2-(4-(3-(4-hydroxyphenyl)-2-methylacrylamido)benzamido)propanamido)benzamido)-2-hydroxy-3-methoxybenzamido)-2-hydroxy-3-methoxybenzoic acid] | exactly the same |  |  |  |  |  |  |  |  |  | 
COc1c(NC(=O)c2ccc(NC(=O)c3ccc(NC(=O)[C@H](CC#N)NC(=O)c4ccc(NC(=O)/C(C)=C/c5ccc(O)cc5)cc4)cc3)c(OC)c2O)ccc(C(=O)O)c1O [Natural albicidin, Albicidin] |  | more than 1 cm |  |  |  |  |  |  |  |  | 
CN[C@@H]1[C@@H](O[C@H]2O[C@H](CO)[C@@H](N)[C@H](O)[C@H]2O)OC2C[C@@H](N)[C@@H](O[C@H]3[C@H](O)[C@@H](O)[C@H](N)C[C@@H]3N)OC2[C@@H]1O (stereo partly shown) [Apramycin, reference compound] |  |  | 2.0 | 2.2 | 3.5 | 1.8 | 1.7 |  |  |  | 
COc1c(NC(=O)c2ccc(NC(=O)c3ccc(NC(=O)[C@H](CC#N)NC(=O)c4ccc(NC(=O)/C(C)=C/c5ccc(O)cc5)cc4)cc3)c(OC)c2O)ccc(C(=O)O)c1O [A, beta-Albicidin] |  |  | 2.8 | 1.5 | 2.0 | 2.8 | 2.6 | 1.4 | 1.2 | 2.0 | 1.9
